Here are results for ten molecules from ChEMBL document CHEMBL1201862, “PubChem BioAssay data set” (2004).

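Results reflect a 48-hour exposure of cells in 96-well plates to compound at five concentrations. GI50 is the concentration that inhibits growth by half.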 The source made the active and inactive calls. Rule as the data show it: active = GI50 up to about 1.1 µM and inactive = higher. A value given as a limit tells only on which side of the number the result lay.

Holding throughout (test): DTP human tumour cell line panel, 48 h
Assay [1] deals with M14.
For assay [2], the system named is HOP-92.
The subject of assay [3] is TK-10.
Assay [4] has as its system A498.
Assay [5] concerns SR.
The test system of assay [6] is SN12C.
Assay [7] concerns HT-29.
In assay [8] the test system is 786-0.
In assay [9] the test system is CAKI-1.
In assay [10] the test system is K562.
The subject of assay [11] is NCI/ADR-RES.
In assay [12] the test system is KM12.
Assay [13] concerns MOLT-4.
The subject of assay [14] is LOX IMVI.
Assay [15] has as its system NCI-H23.
In assay [16] the test system is RXF 393.
The subject of assay [17] is SF-539.
In assay [18] the test system is HCT-15.
Assay [19] has as its system UO-31.
For assay [20], the system named is CCRF-CEM.

As a reminder, the GI50 is the concentration giving 50% growth inhibition. `NC(CC1=CS(=O)(=O)c2ccc(Cl)cc21)C(=O)O` (centres undefined): the GI50 in assay [1], in assay [2], in [3], in assay [4], in [5] and in assay [6] was > 100 µM (inactive) in each case. Besides, the GI50 in assay [7], in [8], in assay [9], in [10], in assay [11] and in [12] was > 100 µM (inactive) each time. Further, the GI50 in [13] is > 100 µM (inactive); in assay [14] it was > 100 µM (inactive); in [15], > 100 µM (inactive); in [16], > 100 µM (inactive); in assay [17], > 100 µM (inactive); in assay [18], > 100 µM.
On to `CCN(CC)C(=O)CCCCCCCCC1CO1` (centres undefined), for which the GI50 in assay [1], in assay [19], in [2], in [3], in assay [4] and in [5] was > 100 µM (inactive) each time. Moreover, the GI50 in assay [6], in [7], in assay [8], in [9], in assay [10] and in assay [11] was > 100 µM (inactive) throughout. The GI50 in [12] was > 100 µM (inactive); in [13], > 100 µM (inactive); in assay [20], > 100 µM (inactive); in [14], 63.4 µM (inactive); in assay [15] it was > 100 µM (inactive); in assay [16], > 100 µM (inactive). Besides, the results for the GI50 in assay [17] and in assay [18] were > 100 µM (inactive) and > 100 µM, respectively.
On to `C/C(=N\Nc1nc2ccccc2s1)c1cccc[n+]1[O-]`, for which the GI50 in assay [1] was 32.2 µM (inactive); in [19] it was 20 µM (inactive); in assay [2], 13.5 µM (inactive); in assay [3] it was 17 µM (inactive); in assay [4], > 100 µM (inactive); in assay [5], 23.9 µM (inactive). Further, the GI50 is 48.9 µM (inactive) in [6]; 41.5 µM (inactive) in [7]; 47.1 µM (inactive) in assay [8]; 32.4 µM (inactive) in [9]; 31.4 µM (inactive) in [10]; 29.7 µM (inactive) in assay [11]. In addition, the GI50 in assay [12] was 30.1 µM (inactive); in [13] it was 1.81 µM (inactive); in assay [20], 25.2 µM (inactive); in [14] it was 48.6 µM (inactive); in [15], 47.3 µM (inactive); in [16], 66.2 µM (inactive). The results for the GI50 in [17] and in [18] were 45.1 µM (inactive) and 34.2 µM, respectively.
On to `CCOC(=O)c1cc2c(OC)cc(OC)cc2oc1=O`, for which the GI50 in assay [1] was > 100 µM (inactive); in assay [2], 46.8 µM (inactive); in assay [3], > 100 µM (inactive); in [4], > 100 µM (inactive); in [5], > 100 µM (inactive); in assay [6] it was > 100 µM (inactive). The GI50 in assay [7] was > 100 µM (inactive); in [8], 52.5 µM (inactive); in assay [9] it was 55.3 µM (inactive); in assay [10] it was > 100 µM (inactive); in assay [11], > 100 µM (inactive); in assay [13], > 100 µM (inactive). For the same molecule, the GI50 is > 100 µM (inactive) in assay [20]; 5.58 µM (inactive) in assay [14]; 63.8 µM (inactive) in assay [15]; 57.3 µM (inactive) in assay [16]; > 100 µM (inactive) in assay [17]; > 100 µM in assay [18].
On to `CCOC(=O)COc1ccc(/C=C/C(=O)c2ccc(OC)cc2)cc1`, for which the GI50 in assay [1] was 34.6 µM (inactive); in assay [19], 19.3 µM (inactive); in assay [2] it was 16.6 µM (inactive); in [3], 42 µM (inactive); in assay [4] it was 29.6 µM (inactive); in assay [5], 23.2 µM (inactive). Moreover, the GI50 in assay [6] was 19 µM (inactive); in assay [7] it was 21.5 µM (inactive); in assay [8], 20.8 µM (inactive); in [9] it was > 10 µM (inactive); in assay [10] it was 40.6 µM (inactive); in assay [11] it was 44.7 µM (inactive). Besides, the GI50 in assay [12] was 28.4 µM (inactive); in assay [13], 42.9 µM (inactive); in assay [20] it was 20.9 µM (inactive); in [14] it was 16.3 µM (inactive); in assay [15], 25.8 µM (inactive); in assay [16] it was 18.1 µM (inactive). The values for the GI50 in [17] and in assay [18] were 19.6 µM (inactive) and 24.4 µM, respectively.
As for `Nc1ccc(C(=O)O)cc1.Nc1nc(N)c2nc[nH]c2n1`, the GI50 in [1] is 10.7 µM (inactive); in assay [19] it was 11.3 µM (inactive); in assay [2], 79.3 µM (inactive); in [3] it was 19.8 µM (inactive); in assay [4] it was 13.6 µM (inactive); in assay [5], 33.2 µM (inactive). The GI50 in [6] is 39 µM (inactive); in assay [7] it was 20.4 µM (inactive); in assay [8] it was 26.7 µM (inactive); in assay [9] it was 13.6 µM (inactive); in assay [10], 20 µM (inactive); in assay [11], 38.5 µM (inactive). For the same molecule, the GI50 in assay [12] was 22.3 µM (inactive); in assay [13], 41.4 µM (inactive); in assay [20] it was 19.6 µM (inactive); in [14], 24.7 µM (inactive); in assay [15], 23.5 µM (inactive); in [16] it was 12.1 µM (inactive). Moreover, the GI50 in assay [17] was > 100 µM (inactive); in assay [18], 28.8 µM.
`N#Cc1nc(-c2cccs2)oc1N`: the GI50 in assay [1] is > 100 µM (inactive); in assay [19], 62.4 µM (inactive); in assay [2] it was 90.2 µM (inactive); in assay [3], > 100 µM (inactive); in [4] it was > 100 µM (inactive); in assay [5], > 100 µM (inactive). Besides, the GI50 is > 100 µM (inactive) in [6]; > 100 µM (inactive) in assay [7]; > 100 µM (inactive) in assay [8]; 3.09 µM (inactive) in [9]; > 100 µM (inactive) in assay [10]; > 100 µM (inactive) in [11]. In addition, the GI50 is > 100 µM (inactive) in assay [12]; > 100 µM (inactive) in [13]; 70.6 µM (inactive) in assay [20]; 63.5 µM (inactive) in assay [14]; > 100 µM (inactive) in assay [15]; > 100 µM (inactive) in [16]. Further, the GI50 in assay [17] was > 100 µM (inactive); in assay [18], > 100 µM.
Turning to `CC(C)(C)[Si](C)(C)OCC1C=CC(n2cnc3c(N)ncnc32)O1` (centres undefined), the GI50 in assay [1] is 23.8 µM (inactive); in [19], 52 µM (inactive); in assay [2], 9.04 µM (inactive); in [3], > 100 µM (inactive); in assay [4], > 79.3 µM (inactive); in assay [5], 15.1 µM (inactive). Also, the GI50 is 35.9 µM (inactive) in assay [6]; 53.5 µM (inactive) in assay [7]; 61.2 µM (inactive) in [8]; > 100 µM (inactive) in [9]; 9.1 µM (inactive) in assay [10]; 34.2 µM (inactive) in [11]. The GI50 was 59.2 µM (inactive) in [12]; 10.1 µM (inactive) in assay [13]; 8.32 µM (inactive) in assay [20]; 23 µM (inactive) in [14]; 39.1 µM (inactive) in assay [15]; 24.1 µM (inactive) in [16]. For the same molecule, the GI50 in assay [17] is > 47.4 µM (inactive); in assay [18] it was 53.1 µM.
With `O=c1c2cc(I)ccc2nc(SCc2nncs2)n1Cc1ccccc1`, the GI50 in [1] is 9.06 µM (inactive); in assay [19], 1.17 µM (inactive); in [2], 3.34 µM (inactive); in assay [3], 29.5 µM (inactive); in assay [4] it was 19.7 µM (inactive); in [5], 15.4 µM (inactive). Besides, the GI50 in assay [6] was 23.9 µM (inactive); in [7], 31.8 µM (inactive); in assay [8], 15 µM (inactive); in assay [9] it was 2.15 µM (inactive); in assay [10], 16.7 µM (inactive); in [11], > 100 µM (inactive). Besides, the GI50 in [12] is 11.8 µM (inactive); in assay [13], 8.3 µM (inactive); in [20], 5.71 µM (inactive); in assay [14] it was 29.5 µM (inactive); in [15], 25.6 µM (inactive); in assay [16], 13.6 µM (inactive). Moreover, the figures for the GI50 in assay [17] and in assay [18] were 22.8 µM (inactive) and 50.2 µM, respectively.
Turning to `C[C@]12CC[C@H]3[C@@H](CCC4=CC(=O)C=C[C@@]43O)[C@@H]1CCC2=O`, the GI50 in assay [1] is > 100 µM (inactive); in [19] it was > 100 µM (inactive); in [2], 27.9 µM (inactive); in assay [4] it was > 100 µM (inactive); in assay [5], 74.3 µM (inactive); in [6], > 100 µM (inactive). The GI50 in [8] was > 100 µM (inactive); in [9] it was > 100 µM (inactive); in assay [10], 83.9 µM (inactive); in [11], 78.3 µM (inactive); in [12] it was > 100 µM (inactive); in assay [13] it was 27.2 µM (inactive). For the same molecule, the GI50 was 26.4 µM (inactive) in assay [20]; 33.6 µM (inactive) in assay [14]; 51.5 µM (inactive) in [15]; > 100 µM (inactive) in [16]; > 100 µM (inactive) in assay [17]; 56 µM in assay [18].
